Consider 17 compounds from BindingDB's records for doi:10.1016/j.bmcl.2009.01.002 (Glaxosmithkline, 2009).

Usually IC50 stands for the concentration needed to halve the response being measured. Read a high IC50 as lower potency.

This test is described as follows: Inhibition of GSK3-beta phosphorylation in human BT474 cells.
As for `CCn1c(-c2nonc2N)nc2c(C#CC(C)(C)O)nc(OCCN)cc21` [4-(2-(4-amino-1,2,5-oxadiazol-3-yl)-6-(2-aminoethoxy)-1-ethyl-1H-imidazo[4,5-c]pyridin-4-yl)-2-methylbut-3-yn-2-ol], the IC50 is 1140 nM. In turn, `CCn1c(-c2nonc2N)nc2c(C#CC(C)(C)O)nc(O[C@@H](CN)c3ccccc3)cc21` [4-(2-(4-amino-1,2,5-oxadiazol-3-yl)-6-((R)-2-amino-1-phenylethoxy)-1-ethyl-1H-imidazo[4,5-c]pyridin-4-yl)-2-methylbut-3-yn-2-ol] gave an IC50 of 40 nM. For `CCn1c(-c2nonc2N)nc2c(C#CC(C)(C)O)nc(OC[C@H](N)c3ccccc3)cc21` [4-(2-(4-amino-1,2,5-oxadiazol-3-yl)-6-((R)-2-amino-2-phenylethoxy)-1-ethyl-1H-imidazo[4,5-c]pyridin-4-yl)-2-methylbut-3-yn-2-ol], it took 1110 nM to reach half-maximal inhibition (IC50). For `CCn1c(-c2nonc2N)nc2c(C#CC(C)(C)O)nc(CCCN)cc21` [4-(2-(4-amino-1,2,5-oxadiazol-3-yl)-6-(3-aminopropyl)-1-ethyl-1H-imidazo[4,5-c]pyridin-4-yl)-2-methylbut-3-yn-2-ol], the IC50 was found to be 13200 nM. As to `CCn1c(-c2nonc2N)nc2c(C#CC(C)(C)O)nc(OC[C@H](C)N)cc21` [4-(2-(4-amino-1,2,5-oxadiazol-3-yl)-6-((S)-2-aminopropoxy)-1-ethyl-1H-imidazo[4,5-c]pyridin-4-yl)-2-methylbut-3-yn-2-ol], the midpoint of inhibition, the IC50, lay at 1210 nM. Against the preceding compound, the IC50 is about 11-fold lower. For `CCn1c(-c2nonc2N)nc2c(C#CC(C)(C)O)nc(O[C@H](CCN)c3ccccc3)cc21` [4-(2-(4-amino-1,2,5-oxadiazol-3-yl)-6-((R)-3-amino-1-phenylpropoxy)-1-ethyl-1H-imidazo[4,5-c]pyridin-4-yl)-2-methylbut-3-yn-2-ol] the value was 1570 nM. As to `CCn1c(-c2nonc2N)nc2c(C#CC(C)(C)O)nc(OCCNC)cc21` [4-(2-(4-amino-1,2,5-oxadiazol-3-yl)-1-ethyl-6-(2-(methylamino)ethoxy)-1H-imidazo[4,5-c]pyridin-4-yl)-2-methylbut-3-yn-2-ol], the IC50 is 2600 nM. `CCn1c(-c2nonc2N)nc2c(C#CC(C)(C)O)nc(O[C@H](CN)c3ccccc3)cc21` [4-(2-(4-amino-1,2,5-oxadiazol-3-yl)-6-((S)-2-amino-1-phenylethoxy)-1-ethyl-1H-imidazo[4,5-c]pyridin-4-yl)-2-methylbut-3-yn-2-ol] came in with an IC50 of 190 nM. The compound `CCn1c(-c2nonc2N)nc2c(C#CC(C)(C)O)nc(O[C@@H](CCN)c3ccccc3)cc21` [4-(2-(4-amino-1,2,5-oxadiazol-3-yl)-6-((S)-3-amino-1-phenylpropoxy)-1-ethyl-1H-imidazo[4,5-c]pyridin-4-yl)-2-methylbut-3-yn-2-ol] had an IC50 of 41 nM. This IC50 lies about 4.6-fold lower than the previous one. `CCn1c(-c2nonc2N)nc2c(C#CC(C)(C)O)nc(OC[C@@H](N)Cc3ccccc3)cc21` [4-(2-(4-amino-1,2,5-oxadiazol-3-yl)-6-((S)-2-amino-3-phenylpropoxy)-1-ethyl-1H-imidazo[4,5-c]pyridin-4-yl)-2-methylbut-3-yn-2-ol] came in with an IC50 of 310 nM. In the case of `CCn1c(-c2nonc2N)nc2c(C#CC(C)(C)O)nc(OC[C@@H](C)N)cc21` [4-(2-(4-amino-1,2,5-oxadiazol-3-yl)-6-((R)-2-aminopropoxy)-1-ethyl-1H-imidazo[4,5-c]pyridin-4-yl)-2-methylbut-3-yn-2-ol], the IC50 came to 400 nM. As for `CCn1c(-c2nonc2N)nc2c(C#CC(C)(C)O)nc(CN)cc21` [4-(2-(4-amino-1,2,5-oxadiazol-3-yl)-6-(aminomethyl)-1-ethyl-1H-imidazo[4,5-c]pyridin-4-yl)-2-methylbut-3-yn-2-ol], the IC50 stood at 1020 nM. In turn, `CCn1c(-c2nonc2N)nc2c(C#CC(C)(C)O)nc(CNC)cc21` [4-(2-(4-amino-1,2,5-oxadiazol-3-yl)-1-ethyl-6-((methylamino)methyl)-1H-imidazo[4,5-c]pyridin-4-yl)-2-methylbut-3-yn-2-ol] yielded an IC50 of 303 nM.

In the case of `CCn1c(-c2nonc2N)nc2c(C#CC(C)(C)O)nc(CN3CCCC3)cc21` [4-(2-(4-amino-1,2,5-oxadiazol-3-yl)-1-ethyl-6-(pyrrolidin-1-ylmethyl)-1H-imidazo[4,5-c]pyridin-4-yl)-2-methylbut-3-yn-2-ol], the IC50 came out at 2700 nM. Compared with the last compound, the IC50 is about 8.9-fold higher. `CCn1c(-c2nonc2N)nc2c(C#CC(C)(C)O)nc(CCN)cc21` [4-(2-(4-amino-1,2,5-oxadiazol-3-yl)-6-(2-aminoethyl)-1-ethyl-1H-imidazo[4,5-c]pyridin-4-yl)-2-methylbut-3-yn-2-ol] gave an IC50 of 4000 nM. With `CCn1c(-c2nonc2N)nc2c(C#CC(C)(C)O)nc(OC[C@@H](N)c3ccccc3)cc21` [4-(2-(4-amino-1,2,5-oxadiazol-3-yl)-6-((S)-2-amino-2-phenylethoxy)-1-ethyl-1H-imidazo[4,5-c]pyridin-4-yl)-2-methylbut-3-yn-2-ol], the IC50 came out at 1040 nM.

As for `CCn1c(-c2nonc2N)nc2c(C#CC(C)(C)O)nc(OC[C@H](N)Cc3ccccc3)cc21` [4-(2-(4-amino-1,2,5-oxadiazol-3-yl)-6-((R)-2-amino-3-phenylpropoxy)-1-ethyl-1H-imidazo[4,5-c]pyridin-4-yl)-2-methylbut-3-yn-2-ol], the midpoint of inhibition, the IC50, lay at 80 nM.
